{"source": "PubChem BioAssay (NCI)", "note": "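Each compound was tested at five concentrations against cells in 96-well plates for 48 hours. GI50 = concentration required for 50% inhibition of growth. At the TGI there is no net growth.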"}
{"system": "K-562 leukemia", "experiment": "NCI anticancer screen, dose series, 48 h"}
{"smiles": "O=S1(=O)N(CCNc2nccc(-c3c(-c4cccc(O)c4)nc4sccn34)n2)CCN1Cc1ccccc1", "GI50": "3.44 µM", "TGI": "> 50 µM"}
{"smiles": "C=C(C)C(=O)OC1CCC2(C)C(CCC3C2CCC2(C)C(c4ccc(=O)oc4)CC4OC432)C1", "note": "(centres undefined)", "TGI": "32.9 µM"}
{"smiles": "COc1cc(/C=C2\\CCCC3=C2NC(C)=NC3c2cc(OC)c(OC)c(OC)c2)cc(OC)c1OC", "note": "(centres undefined)", "GI50": "0.917 µM", "TGI": "> 100 µM"}
{"smiles": "O=C(N/N=C\\c1cccc(O)c1)c1ccncc1", "TGI": "> 100 µM"}
{"smiles": "Cc1cc(O)c(C(C)(C)C)cc1Sc1cc(C(C)(C)C)c(O)cc1C", "GI50": "1.95 µM", "TGI": "5.4 µM"}
{"smiles": "O=C1CCCCC2N(C(c3ccccc3)c3ccccc3)CC[C@@]12c1ccccc1", "note": "(mixture of isomers)", "TGI": "> 10 µM"}
{"smiles": "O=C1NN(C2=NNC3(C(=O)N2)c2ccccc2-c2ccccc23)C(c2ccccc2)=N/C1=C/c1ccc(O)cc1", "GI50": "35.8 µg/mL", "TGI": "> 150 µg/mL"}
{"smiles": "CCOC(=O)C(O)(NC(=O)c1ccc(F)cc1)C(F)(F)F", "note": "(centres undefined)", "TGI": "> 100 µM"}
{"smiles": "Cc1nc2ccccc2n1C(=O)c1c(F)c(F)c(F)c(F)c1F", "TGI": "> 100 µM"}
{"smiles": "Clc1ccccc1/C=C/c1cscn1", "TGI": "> 100 µM"}
{"system": "U251 CNS", "experiment": "NCI anticancer screen, dose series, 48 h"}
{"smiles": "O=C(O)Cc1cc(O)c(CC(=O)O)cc1O", "TGI": "> 100 µM"}
{"smiles": "N#Cc1c(Cl)c2cc([N+](=O)[O-])ccc2n2c1nc1ccccc12", "TGI": "> 100 µM"}
{"smiles": "C=CC1(C)CCC2=C(CCC3C(C)(C(=O)OC)CCCC23C)C1=O", "note": "(centres undefined)", "TGI": "29 µM"}
{"smiles": "O=S1(=O)N(CCNc2nccc(-c3c(-c4cccc(O)c4)nc4sccn34)n2)CCN1Cc1ccccc1", "GI50": "8.21 µM", "TGI": "> 50 µM"}
{"smiles": "C=C(C)C(=O)OC1CCC2(C)C(CCC3C2CCC2(C)C(c4ccc(=O)oc4)CC4OC432)C1", "note": "(centres undefined)", "TGI": "30.3 µM"}
{"smiles": "O=C(N/N=C\\c1cccc(O)c1)c1ccncc1", "TGI": "> 100 µM"}
{"smiles": "Cc1cc(O)c(C(C)(C)C)cc1Sc1cc(C(C)(C)C)c(O)cc1C", "GI50": "1.99 µM", "TGI": "4.22 µM"}
{"smiles": "O=C1CCCCC2N(C(c3ccccc3)c3ccccc3)CC[C@@]12c1ccccc1", "note": "(mixture of isomers)", "TGI": "> 10 µM"}
{"smiles": "O=C1NN(C2=NNC3(C(=O)N2)c2ccccc2-c2ccccc23)C(c2ccccc2)=N/C1=C/c1ccc(O)cc1", "GI50": "104 µg/mL", "TGI": "> 150 µg/mL"}
{"smiles": "CCOC(=O)C(O)(NC(=O)c1ccc(F)cc1)C(F)(F)F", "note": "(centres undefined)", "TGI": "> 100 µM"}
{"smiles": "Cc1nc2ccccc2n1C(=O)c1c(F)c(F)c(F)c(F)c1F", "TGI": "52.6 µM"}
{"smiles": "Clc1ccccc1/C=C/c1cscn1", "TGI": "> 100 µM"}
{"system": "SF-268 CNS", "experiment": "NCI anticancer screen, dose series, 48 h"}
{"smiles": "O=C(O)Cc1cc(O)c(CC(=O)O)cc1O", "TGI": "> 100 µM"}
{"smiles": "N#Cc1c(Cl)c2cc([N+](=O)[O-])ccc2n2c1nc1ccccc12", "TGI": "13.6 µM"}
{"smiles": "C=CC1(C)CCC2=C(CCC3C(C)(C(=O)OC)CCCC23C)C1=O", "note": "(centres undefined)", "TGI": "34.9 µM"}
{"smiles": "O=S1(=O)N(CCNc2nccc(-c3c(-c4cccc(O)c4)nc4sccn34)n2)CCN1Cc1ccccc1", "GI50": "15.3 µM", "TGI": "> 50 µM"}
{"smiles": "C=C(C)C(=O)OC1CCC2(C)C(CCC3C2CCC2(C)C(c4ccc(=O)oc4)CC4OC432)C1", "note": "(centres undefined)", "TGI": "31.9 µM"}
{"smiles": "COc1cc(/C=C2\\CCCC3=C2NC(C)=NC3c2cc(OC)c(OC)c(OC)c2)cc(OC)c1OC", "note": "(centres undefined)", "GI50": "1.88 µM", "TGI": "> 100 µM"}
{"smiles": "O=C(N/N=C\\c1cccc(O)c1)c1ccncc1", "TGI": "> 100 µM"}
{"smiles": "Cc1cc(O)c(C(C)(C)C)cc1Sc1cc(C(C)(C)C)c(O)cc1C", "GI50": "3.3 µM", "TGI": "12.9 µM"}
{"smiles": "O=C1CCCCC2N(C(c3ccccc3)c3ccccc3)CC[C@@]12c1ccccc1", "note": "(mixture of isomers)", "TGI": "> 10 µM"}
{"smiles": "O=C1NN(C2=NNC3(C(=O)N2)c2ccccc2-c2ccccc23)C(c2ccccc2)=N/C1=C/c1ccc(O)cc1", "GI50": "49.9 µg/mL", "TGI": "> 150 µg/mL"}
{"smiles": "CCOC(=O)C(O)(NC(=O)c1ccc(F)cc1)C(F)(F)F", "note": "(centres undefined)", "TGI": "> 100 µM"}
{"smiles": "Cc1nc2ccccc2n1C(=O)c1c(F)c(F)c(F)c(F)c1F", "TGI": "> 100 µM"}
{"smiles": "Clc1ccccc1/C=C/c1cscn1", "TGI": "> 100 µM"}
{"system": "CAKI-1 renal", "experiment": "NCI anticancer screen, dose series, 48 h"}
{"smiles": "O=C(O)Cc1cc(O)c(CC(=O)O)cc1O", "TGI": "> 100 µM"}
{"smiles": "N#Cc1c(Cl)c2cc([N+](=O)[O-])ccc2n2c1nc1ccccc12", "TGI": "4.78 µM"}
{"smiles": "C=CC1(C)CCC2=C(CCC3C(C)(C(=O)OC)CCCC23C)C1=O", "note": "(centres undefined)", "TGI": "87.1 µM"}
{"smiles": "O=S1(=O)N(CCNc2nccc(-c3c(-c4cccc(O)c4)nc4sccn34)n2)CCN1Cc1ccccc1", "GI50": "4.4 µM", "TGI": "17.8 µM"}
{"smiles": "C=C(C)C(=O)OC1CCC2(C)C(CCC3C2CCC2(C)C(c4ccc(=O)oc4)CC4OC432)C1", "note": "(centres undefined)", "TGI": "15 µM"}
{"smiles": "COc1cc(/C=C2\\CCCC3=C2NC(C)=NC3c2cc(OC)c(OC)c(OC)c2)cc(OC)c1OC", "note": "(centres undefined)", "GI50": "2.61 µM", "TGI": "22.9 µM"}
{"smiles": "O=C(N/N=C\\c1cccc(O)c1)c1ccncc1", "TGI": "> 100 µM"}
{"smiles": "Cc1cc(O)c(C(C)(C)C)cc1Sc1cc(C(C)(C)C)c(O)cc1C", "GI50": "2.07 µM", "TGI": "6.62 µM"}
{"smiles": "O=C1CCCCC2N(C(c3ccccc3)c3ccccc3)CC[C@@]12c1ccccc1", "note": "(mixture of isomers)", "TGI": "> 10 µM"}
{"smiles": "O=C1NN(C2=NNC3(C(=O)N2)c2ccccc2-c2ccccc23)C(c2ccccc2)=N/C1=C/c1ccc(O)cc1", "GI50": "64.2 µg/mL", "TGI": "> 150 µg/mL"}
{"smiles": "CCOC(=O)C(O)(NC(=O)c1ccc(F)cc1)C(F)(F)F", "note": "(centres undefined)", "TGI": "> 100 µM"}
{"smiles": "Cc1nc2ccccc2n1C(=O)c1c(F)c(F)c(F)c(F)c1F", "TGI": "48.9 µM"}
{"system": "HCT-15 colon", "experiment": "NCI anticancer screen, dose series, 48 h"}
{"smiles": "O=C(O)Cc1cc(O)c(CC(=O)O)cc1O", "TGI": "> 100 µM"}
{"smiles": "N#Cc1c(Cl)c2cc([N+](=O)[O-])ccc2n2c1nc1ccccc12", "TGI": "2.3 µM"}
{"smiles": "C=CC1(C)CCC2=C(CCC3C(C)(C(=O)OC)CCCC23C)C1=O", "note": "(centres undefined)", "TGI": "42.7 µM"}
{"smiles": "O=S1(=O)N(CCNc2nccc(-c3c(-c4cccc(O)c4)nc4sccn34)n2)CCN1Cc1ccccc1", "GI50": "6.05 µM", "TGI": "20.9 µM"}
{"smiles": "C=C(C)C(=O)OC1CCC2(C)C(CCC3C2CCC2(C)C(c4ccc(=O)oc4)CC4OC432)C1", "note": "(centres undefined)", "TGI": "32 µM"}
{"smiles": "COc1cc(/C=C2\\CCCC3=C2NC(C)=NC3c2cc(OC)c(OC)c(OC)c2)cc(OC)c1OC", "note": "(centres undefined)", "GI50": "1.03 µM", "TGI": "> 100 µM"}
{"smiles": "O=C(N/N=C\\c1cccc(O)c1)c1ccncc1", "TGI": "> 100 µM"}
{"smiles": "Cc1cc(O)c(C(C)(C)C)cc1Sc1cc(C(C)(C)C)c(O)cc1C", "GI50": "2.96 µM", "TGI": "11.8 µM"}
{"smiles": "O=C1CCCCC2N(C(c3ccccc3)c3ccccc3)CC[C@@]12c1ccccc1", "note": "(mixture of isomers)", "TGI": "> 10 µM"}
{"smiles": "O=C1NN(C2=NNC3(C(=O)N2)c2ccccc2-c2ccccc23)C(c2ccccc2)=N/C1=C/c1ccc(O)cc1", "GI50": "49.6 µg/mL", "TGI": "> 150 µg/mL"}
{"smiles": "CCOC(=O)C(O)(NC(=O)c1ccc(F)cc1)C(F)(F)F", "note": "(centres undefined)", "TGI": "> 100 µM"}
{"smiles": "Cc1nc2ccccc2n1C(=O)c1c(F)c(F)c(F)c(F)c1F", "TGI": "33.9 µM"}
{"smiles": "Clc1ccccc1/C=C/c1cscn1", "TGI": "> 100 µM"}
